Results reported in patent publication US11357857B2, “Excipient compounds for protein processing” (COMERA LIFE SCIENCES, INC., priority 2014, dated 2022).
Several values for one entry are separate records, joined by “and”; a condition that tells them apart may be missing. Identical values can stand only once. Counter-ions that a name gives are not always drawn. Like-named read-outs stand apart in the source and are kept apart here.

Legend:
[1] = Viscosity of PEG (Mw ~1,000,000) solution in Tris buffer with excipient (Examples 12-13); format: physicochemical
[2] = excipient 10 mg/mL
[3] = tested on: bovine gamma globulin (BGG); assay: Normalized viscosity of 280 mg/mL BGG in 50 mM histidine HCl with primary/secondary excipient combinations (Example 10); format: physicochemical
Method: The primary excipient compounds were selected from compounds having both anionic and aromatic functionality, as listed below in Table 5. The secondary excipient compounds were selected from compounds having either nonionic or cationic charge at pH 6 and either imidazoline or benzene rings, as listed below in Table 5. Formulations of these excipients were prepared in 50 mM histidine hydrochloride buffer solution for viscosity measurement in the following way. […] The individual primary or secondary excipient compounds were then dissolved in 50 mM histidine HCl.

[4] = tested on: bovine gamma globulin (BGG); assay: Viscosity of 280 mg/mL BGG in histidine buffer pH 6 versus amount of arginine or caffeine added (Example 24); format: physicochemical
[5] = tested on: bovine gamma globulin (BGG)
Method: Each buffer solution contained different excipient or combination of excipients as described in the table below. The viscosity of the solutions was measured as described in previous examples.

bevacizumab (AVASTIN®) = assay: Viscosity of concentrated AVASTIN with and without caffeine, microVisc (Example 40); details: for % Viscosity Reduction from Excipient: 10 mg/mL caffeine
Method: The sample was concentrated in Amicon Ultra 4 centrifugal concentrator tubes (MWCO 30 kDa) at 3500 rpm. […] AVASTIN® stock solution was diluted with the excipient buffer then concentrated in Amicon Ultra 15 centrifugal concentrator tubes (MWCO 30 kDa). The concentration of the excipient samples was determined by Bradford assay and the viscosity was measured using the RheoSense microVisc.

[6] = tested on: bovine gamma globulin (BGG); details: 280 mg/mL BGG, 20 mM histidine pH 6, 25° C.; Excipient A caffeine 15 mg/mL; no Excipient B
[7] = tested on: bovine gamma globulin (BGG); assay: Viscosity of 280 mg/mL BGG in 20 mM histidine pH 6 with different molar caffeine concentrations, microVisc (Example 31); format: physicochemical
Method: The formulations for this Example were prepared in 20 mM histidine buffer for viscosity measurement in the following way.
The viscometer was equipped with an A-10 chip having a channel depth of 100 microns, and was operated at a shear rate of 250 l/s and 25° C. To measure viscosity, the test formulation was loaded into the viscometer, taking care to remove all air bubbles from the pipet. The pipet containing the loaded sample formulation was placed in the instrument and allowed to incubate at the measurement temperature for about five minutes. The instrument was then run until the channel was fully equilibrated with the test fluid, indicated by a stable viscosity reading, and then the viscosity recorded in centipoise.

[8] = tested on: bovine gamma globulin (BGG); assay: Normalized viscosity of 280 mg/mL BGG in 20 mM histidine with dimethyl sulfone (Example 42); format: physicochemical
Method: Such formulations were prepared in 20 mM histidine buffer for viscosity measurement in the following way. […].

[9] = molecular target: T1, PEGylated BSA (1 PEG chain per BSA molecule) (Bos taurus, UniProt P02769); assay: Viscosity of PEGylated BSA with 1 PEG chain per BSA with excipient, microVisc (Example 17); format: physicochemical
T1 construct: purchased Aldrich A7906
Method: To a beaker was added 200 mL of a phosphate buffered saline (Aldrich Cat. #P4417) and 4 g of BSA (Aldrich Cat. #A7906) and mixed with a magnetic bar. Next 400 mg of methoxy polyethylene glycol maleimide, MW=5,000, (Aldrich Cat. #63187) was added. The reaction mixture was allowed to react overnight at room temperature. The following day, 20 drops of HCl 0.1 M were added to stop the reaction. […] The reaction mixture was placed in an Amicon centrifuge tube with a molecular weight cutoff (MWCO) of 30,000 and concentrated to a few milliliters. Next the sample was diluted 20 times with a histidine buffer, 50 mM at a pH of approximately 6, followed by concentrating until a high viscosity fluid was obtained.
The viscometer measurements were completed at ambient temperature.

PEGylated lysozyme = PEGylated lysozyme (Gallus gallus, UniProt P00698); details: excipient 20 mg/mL
Method: The solution was mixed by gently shaking and the viscosity was measured by a RheoSense microVisc equipped with an A10 channel (100 micron depth) at a shear rate of 500 sec−1. The viscometer measurements were completed at ambient temperature.

[10] = tested on: bovine gamma globulin (BGG); assay: Normalized viscosity of 280 mg/mL BGG in 20 mM histidine with local anesthetic excipients (Example 21); format: physicochemical; details: no B
Excerpt: The first excipient compound, Excipient A, was selected from a group of compounds having local anesthetic properties.

[11] = tested on: bovine gamma globulin (BGG); details: excipient 50 mg/mL
[12] = Caffeine solubility testing with co-solutes at ambient temperature (Examples 32-33); details: for Observation of caffeine dissolution: caffeine 80 mg/mL
Method: Prepared solutions were used either neat or diluted with deionized water.
A small magnetic stir bar was added to the vial, and the solution was allowed to mix vigorously on a stir plate for about 10 minutes.

[13] = tested on: bovine gamma globulin (BGG); assay: Normalized viscosity of 280 mg/mL BGG in distilled water with excipient combinations (Example 11); format: physicochemical; details: primary excipient 20 mg/mL, no secondary
Method: The primary excipient compounds were selected from compounds having both anionic and aromatic functionality, as listed below in Table 6. The secondary excipient compounds were selected from compounds having either nonionic or cationic charge at pH 6 and either imidazoline or benzene rings, as listed below in Table 6. Formulations of these excipients were prepared in distilled water for viscosity measurement in the following way. […].

[14] = primary excipient 30 mg/mL, no secondary

T1 sequence (P02769 25-607): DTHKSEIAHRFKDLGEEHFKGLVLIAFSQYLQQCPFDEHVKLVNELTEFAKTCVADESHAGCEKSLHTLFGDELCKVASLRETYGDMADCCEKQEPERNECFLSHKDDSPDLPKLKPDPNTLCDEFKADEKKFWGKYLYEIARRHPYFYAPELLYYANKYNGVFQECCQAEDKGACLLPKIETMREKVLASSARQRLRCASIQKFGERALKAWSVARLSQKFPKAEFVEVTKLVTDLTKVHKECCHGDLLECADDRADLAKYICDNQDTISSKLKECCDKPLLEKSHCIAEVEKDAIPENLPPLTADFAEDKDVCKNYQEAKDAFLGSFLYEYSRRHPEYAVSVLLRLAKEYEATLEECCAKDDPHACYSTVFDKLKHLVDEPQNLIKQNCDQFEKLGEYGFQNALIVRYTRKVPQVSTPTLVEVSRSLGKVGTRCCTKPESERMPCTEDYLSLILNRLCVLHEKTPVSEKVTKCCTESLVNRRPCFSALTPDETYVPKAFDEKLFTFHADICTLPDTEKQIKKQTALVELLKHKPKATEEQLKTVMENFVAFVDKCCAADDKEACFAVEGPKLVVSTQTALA
Sequence of PEGylated lysozyme (P00698 19-147): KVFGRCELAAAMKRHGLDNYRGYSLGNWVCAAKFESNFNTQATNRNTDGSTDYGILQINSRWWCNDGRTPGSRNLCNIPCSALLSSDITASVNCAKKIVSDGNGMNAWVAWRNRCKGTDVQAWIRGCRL

Question: For `O=C(O)CC(O)(CC(=O)O)C(=O)O`, which Viscosity ([1]; excipient 20 mg/mL) is on record?
Answer: 73.3 cP

Question: What about the “Viscosity Reduction” value ([1]; excipient 20 mg/mL) of the same molecule?
Answer: 28%

Question: What about the Viscosity ([1]; excipient 40 mg/mL) of the same molecule?
Answer: 56.8 cP

Question: What about the “Viscosity Reduction” value ([1]; excipient 40 mg/mL) of the same molecule?
Answer: 44%

Question: What about the Viscosity [2] of the same molecule?
Answer: 74.9 cP

Question: And the “Viscosity Reduction” value [2]?
Answer: 6.0%

Question: With `O=S(=O)(O)c1ccc(O)cc1` [4-hydroxybenzene sulfonic acid] as the molecule, how does the “Normalized Viscosity” value ([3]; primary excipient 31 mg/mL, no secondary) read?
Answer: 0.59

Question: For `O=C(O)c1ccc(O)cc1` [4-hydroxybenzoic acid], which “Normalized Viscosity” value [3, 14] is on record?
Answer: 0.61

Question: What does the source list for `N=C(N)NCCC[C@H](N)C(=O)O` [Arginine]?
Answer: Viscosity ([4]; arginine added 53 mg/mL): 40.9 cP; Viscosity Reduction ([4]; arginine added 53 mg/mL): 48%; Viscosity ([4]; arginine added 79 mg/mL): 46.1 cP; Viscosity Reduction ([4]; arginine added 79 mg/mL): 42%; Viscosity ([4]; arginine added 105 mg/mL): 47.8 cP; Viscosity Reduction ([4]; arginine added 105 mg/mL): 40%; Viscosity ([4]; arginine added 132 mg/mL): 49.0 cP; Viscosity Reduction ([4]; arginine added 132 mg/mL): 38%; Viscosity ([4]; arginine added 158 mg/mL): 48.0 cP; Viscosity Reduction ([4]; arginine added 158 mg/mL): 39%; Viscosity ([4]; arginine added 174 mg/mL): 50.3 cP; Viscosity Reduction ([4]; arginine added 174 mg/mL): 36%; Viscosity ([4]; arginine added 211 mg/mL): 51.4 cP; Viscosity Reduction ([4]; arginine added 211 mg/mL): 35%; Viscosity ([5]; arginine 25 mg/ml): 76.7 cP; Viscosity Reduction ([5]; arginine 25 mg/ml): 41%

Question: Which “Viscosity with 10 mg/mL added caffeine excipient” value (bevacizumab (AVASTIN®); concentration 190 mg/mL) does the source give for `Cn1c(=O)c2c(ncn2C)n(C)c1=O` [Caffeine] here?
Answer: 13 cP

Question: What about the “% Viscosity Reduction from Excipient” value (bevacizumab (AVASTIN®); concentration 190 mg/mL) of the same molecule?
Answer: 36%

Question: And the “% Viscosity Reduction from Excipient” value (bevacizumab (AVASTIN®); concentration 266 mg/mL)?
Answer: 62%

Question: And the “Normalized Viscosity” value [6]?
Answer: 0.77

Question: What about the Viscosity ([4]; caffeine added 10 mg/mL) of the same molecule?
Answer: 60 cP

Question: What about the Viscosity Reduction ([4]; caffeine added 10 mg/mL) of the same molecule?
Answer: 31%

Question: What about the Viscosity ([4]; caffeine added 15 mg/mL) of the same molecule?
Answer: 62 cP

Question: What about the Viscosity Reduction ([4]; caffeine added 15 mg/mL) of the same molecule?
Answer: 23%

Question: What about the Viscosity ([4]; caffeine added 22 mg/mL) of the same molecule?
Answer: 50 cP

Question: And the Viscosity Reduction ([4]; caffeine added 22 mg/mL)?
Answer: 45%

Question: And the “Normalized Viscosity” value ([3]; no primary, secondary excipient 10 mg/mL)?
Answer: 0.73

Question: What about the “Normalized Viscosity” value ([7]; caffeine 5 mM) of the same molecule?
Answer: 0.81

Question: What about the Viscosity ([7]; caffeine 5 mM) of the same molecule?
Answer: 67 cP

Question: What about the “Normalized Viscosity” value ([7]; caffeine 10 mM) of the same molecule?
Answer: 0.84

Question: What about the Viscosity ([7]; caffeine 10 mM) of the same molecule?
Answer: 70 cP

Question: What about the “Normalized Viscosity” value ([7]; caffeine 20 mM) of the same molecule?
Answer: 0.92

Question: What about the Viscosity ([7]; caffeine 20 mM) of the same molecule?
Answer: 77 cP

Question: And the “Normalized Viscosity” value ([7]; caffeine 30 mM)?
Answer: 0.76

Question: And the Viscosity ([7]; caffeine 30 mM)?
Answer: 63 cP

Question: And the “Normalized Viscosity” value ([7]; caffeine 40 mM)?
Answer: 0.78

Question: And the Viscosity ([7]; caffeine 40 mM)?
Answer: 65 cP

Question: What about the “Normalized Viscosity” value ([7]; caffeine 50 mM) of the same molecule?
Answer: 0.78

Question: What about the Viscosity ([7]; caffeine 50 mM) of the same molecule?
Answer: 65 cP

Question: What about the “Normalized Viscosity” value ([7]; caffeine 60 mM) of the same molecule?
Answer: 0.69

Question: And the Viscosity ([7]; caffeine 60 mM)?
Answer: 57 cP

Question: And the “Normalized Viscosity” value ([7]; caffeine 70 mM)?
Answer: 0.60

Question: What about the Viscosity ([7]; caffeine 70 mM) of the same molecule?
Answer: 50 cP

Question: What about the “Normalized Viscosity” value ([7]; caffeine 80 mM) of the same molecule?
Answer: 0.60

Question: What about the Viscosity ([7]; caffeine 80 mM) of the same molecule?
Answer: 50 cP

Question: What about the Viscosity ([5]; caffeine 10 mg/ml) of the same molecule?
Answer: 87.9 cP

Question: What about the “Viscosity Reduction” value ([5]; caffeine 10 mg/ml) of the same molecule?
Answer: 33%

Question: Which results are given for `CS(C)(=O)=O` [Dimethyl sulfone]?
Answer: Normalized Viscosity ([8]; dimethyl sulfone 15 mg/mL): 0.92; Normalized Viscosity ([8]; dimethyl sulfone 30 mg/mL): 0.71 and 0.72; Normalized Viscosity ([8]; dimethyl sulfone 50 mg/mL): 0.71

Question: With `c1c[nH]cn1` [Imidazole] as the molecule, how does the “Normalized Viscosity” value ([3]; no primary, secondary excipient 5 mg/mL) read?
Answer: 0.75

Question: Which Viscosity ([9]; excipient 40 mg/mL) does the source give for `CC(=O)[O-].[K+]` [K acetate, potassium acetate] here?
Answer: 89.5 cP

Question: And the “Viscosity Reduction” value ([9]; excipient 40 mg/mL)?
Answer: 60%

Question: What about the Viscosity (PEGylated lysozyme) of the same molecule?
Answer: 22.6 cP

Question: And the “Viscosity Reduction” value (PEGylated lysozyme)?
Answer: 8%

Question: For `CCN(CC)CC(=O)Nc1c(C)cccc1C` [Lidocaine], which “Normalized Viscosity” value ([10]; excipient A 23 mg/mL) is on record?
Answer: 0.74

Question: What about the “Normalized Viscosity” value ([10]; excipient A 45 mg/mL) of the same molecule?
Answer: 0.73

Question: With `O=P([O-])([O-])[O-].[K+].[K+].[K+]` [Potassium phosphate, potassium phosphate tribasic] as the molecule, how does the Viscosity [2] read?
Answer: 72.3 cP

Question: What about the “Viscosity Reduction” value [2] of the same molecule?
Answer: 9.3%

Question: Which “Viscosity Reduction” value [11] does the source give for `CCN(CC)CCOC(=O)c1ccc(N)cc1` [Procaine HCl] here?
Answer: 47%

Question: What about the “Normalized Viscosity” value ([10]; excipient A 40 mg/mL) of the same molecule?
Answer: 0.64

Question: What about the “Observation of caffeine dissolution” value ([12]; co-solute 30 mg/mL) of the same molecule?
Answer: DND

Question: What about the “Observation of caffeine dissolution” value ([12]; co-solute 40 mg/mL) of the same molecule?
Answer: DND

Question: What about the “Dissolution of caffeine enabled relative to reported solubility limit” value ([12]; co-solute in water, ambient temperature (about 23 C)) of the same molecule?
Answer: at least about four times

Question: Which “Normalized Viscosity” value [13] does the source give for `O=C(O)c1ccccc1O` [Salicylic Acid] here?
Answer: 0.96

Question: What about the “Normalized Viscosity” value [3, 14] of the same molecule?
Answer: 0.79

Question: For `O=S(=O)([O-])[O-].[Na+].[Na+]` [Sodium sulfate], which Viscosity [2] is on record?
Answer: 75.1 cP

Question: And the “Viscosity Reduction” value [2]?
Answer: 5.8%

Question: Which results are given for Alpha-Cyclodextrin sulfated Na salt?
Answer: Viscosity ([9]; excipient 20 mg/mL): 151.5 cP; Viscosity Reduction ([9]; excipient 20 mg/mL): 34%
